Reference: the supplement of paper PMC10627819

How the values were obtained:
S. aureus DSM 20231 [1] = assay: fitness (endpoint OD595 vs no drug) (fraction); higher = more growth
Outline: (§1)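 Each well of a 384-well plate received 30 µl of culture at OD595 0.01, or 55 µl for S. pneumoniae. TSB, LB Lennox or CY served as media at 37 °C. OD595 was taken every 30 min for 14 h and corrected by subtracting the first reading. Fitness is the optical density at stationary-phase entry divided by the robust mean of no-drug controls, capped at 1.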

S. aureus Newman [2] = assay: as above
Outline: as §1

S. pneumoniae D39V [3] = assay: as above
Outline: as §1

B. subtilis 168 = assay: Bliss interaction score (quartile over a dose matrix) (fitness difference); higher = more antagonism (negative = synergy)
Outline: (§2)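 The Bliss score takes observed fitness and subtracts the expected fitness, calculated as a product of single-drug fitness values. Those single-drug values were inferred from the combination data. Fitness is OD595 at entry into stationary phase divided by the plate's robust no-drug mean, capped at 1, and the score is summarised by quartiles across technical, biological and donor/recipient replicates.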

S. aureus DSM 20231 [4] = assay: as above
Outline: as §2

S. aureus Newman [5] = assay: as above
Outline: as §2

S. pneumoniae D39V [6] = assay: as above
Outline: as §2
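Throughout, for Bliss interaction score (quartile over a dose matrix): first quartile when negative (synergy) and third quartile when positive (antagonism).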

CO/N=C(\C(=O)N[C@@H]1C(=O)N2C(C(=O)[O-])=C(C[N+]3(C)CCCC3)CS[C@H]12)c1csc(N)n1 [Cefepime] + CC1=C\[C@@H](O)CC(=O)Cc2nc(co2)C(=O)N2CCC=C2C(=O)O[C@H](C(C)C)[C@H](C)/C=C/C(=O)NC\C=C\1 [Virginiamycin M1]
Details	fitness
S. aureus DSM 20231 [1], first compound 0.125 µg/mL, partner 0.0625 µg/mL	0.97
S. aureus DSM 20231 [1], first compound 0.125 µg/mL, partner 0.125 µg/mL	0.932
S. aureus DSM 20231 [1], first compound 0.125 µg/mL, partner 0.25 µg/mL	0.895
S. aureus DSM 20231 [1], first compound 0.25 µg/mL, partner 0.0625 µg/mL	0.78
S. aureus DSM 20231 [1], first compound 0.25 µg/mL, partner 0.125 µg/mL	0.902
S. aureus DSM 20231 [1], first compound 0.25 µg/mL, partner 0.25 µg/mL	0.862
S. aureus DSM 20231 [1], first compound 0.5 µg/mL, partner 0.0625 µg/mL	0.832
S. aureus DSM 20231 [1], first compound 0.5 µg/mL, partner 0.125 µg/mL	0.969
S. aureus DSM 20231 [1], first compound 0.5 µg/mL, partner 0.25 µg/mL	0.904
S. aureus Newman [2], first compound 0.125 µg/mL, partner 0.0625 µg/mL	0.936
S. aureus Newman [2], first compound 0.125 µg/mL, partner 0.125 µg/mL	0.932
S. aureus Newman [2], first compound 0.125 µg/mL, partner 0.25 µg/mL	0.943
S. aureus Newman [2], first compound 0.25 µg/mL, partner 0.0625 µg/mL	0.869
S. aureus Newman [2], first compound 0.25 µg/mL, partner 0.125 µg/mL	0.848
S. aureus Newman [2], first compound 0.25 µg/mL, partner 0.25 µg/mL	0.863
S. aureus Newman [2], first compound 0.5 µg/mL, partner 0.0625 µg/mL	0.768
S. aureus Newman [2], first compound 0.5 µg/mL, partner 0.125 µg/mL	0.792
S. aureus Newman [2], first compound 0.5 µg/mL, partner 0.25 µg/mL	0.775
S. pneumoniae D39V [3], first compound 0.007 µg/mL, partner 0.5 µg/mL	≥ 1
S. pneumoniae D39V [3], first compound 0.007 µg/mL, partner 1 µg/mL	≥ 1
S. pneumoniae D39V [3], first compound 0.007 µg/mL, partner 2 µg/mL	0.992
S. pneumoniae D39V [3], first compound 0.0078 µg/mL, partner 2 µg/mL	0.958
S. pneumoniae D39V [3], first compound 0.014 µg/mL, partner 0.5 µg/mL	≥ 1
S. pneumoniae D39V [3], first compound 0.014 µg/mL, partner 1 µg/mL	≥ 1
S. pneumoniae D39V [3], first compound 0.014 µg/mL, partner 2 µg/mL	≥ 1
S. pneumoniae D39V [3], first compound 0.0155 µg/mL, partner 2 µg/mL	0.946
S. pneumoniae D39V [3], first compound 0.028 µg/mL, partner 0.5 µg/mL	0.979
S. pneumoniae D39V [3], first compound 0.028 µg/mL, partner 1 µg/mL	0.956
S. pneumoniae D39V [3], first compound 0.028 µg/mL, partner 2 µg/mL	0.969
S. pneumoniae D39V [3], first compound 0.031 µg/mL, partner 2 µg/mL	0.851

fitness, one replicate
Details	first compound 0.0078 µg/mL	first compound 0.0155 µg/mL	first compound 0.031 µg/mL	first compound 0.125 µg/mL	first compound 0.25 µg/mL	first compound 0.5 µg/mL
S. aureus DSM 20231 [1], partner 0.5 µg/mL	–	–	–	0.887	0.892	0.866
S. aureus DSM 20231 [1], partner 1 µg/mL	–	–	–	0.86	0.878	0.948
S. aureus Newman [2], partner 0.5 µg/mL	–	–	–	0.865	0.819	0.732
S. aureus Newman [2], partner 1 µg/mL	–	–	–	0.873	0.916	0.768
S. aureus Newman [2], partner 2 µg/mL	–	–	–	0.888	0.798	0.706
S. pneumoniae D39V [3], partner 0.15 µg/mL	≥ 1	≥ 1	≥ 1	–	–	–
S. pneumoniae D39V [3], partner 0.3 µg/mL	≥ 1	≥ 1	0.963	–	–	–
S. pneumoniae D39V [3], partner 0.5 µg/mL	≥ 1	0.948	0.782	–	–	–
S. pneumoniae D39V [3], partner 1 µg/mL	0.958	0.962	0.686	–	–	–

Details	Bliss interaction score
B. subtilis 168	0.062
S. aureus DSM 20231 [4]	0.0738
S. aureus Newman [5]	-0.0566
S. pneumoniae D39V [6]	0.0257

CO/N=C(\C(=O)N[C@@H]1C(=O)N2C(C(=O)[O-])=C(C[N+]3(C)CCCC3)CS[C@H]12)c1csc(N)n1 [Cefepime] + COc1c(N2C[C@@H]3CCCN[C@@H]3C2)c(F)cc2c(=O)c(C(=O)O)cn(C3CC3)c12 [Moxifloxacin]
Details	fitness
S. aureus DSM 20231 [1], first compound 0.125 µg/mL, partner 0.0075 µg/mL	0.664
S. aureus DSM 20231 [1], first compound 0.125 µg/mL, partner 0.015 µg/mL	0.681
S. aureus DSM 20231 [1], first compound 0.125 µg/mL, partner 0.03 µg/mL	0.616
S. aureus DSM 20231 [1], first compound 0.25 µg/mL, partner 0.0075 µg/mL	0.69
S. aureus DSM 20231 [1], first compound 0.25 µg/mL, partner 0.015 µg/mL	0.682
S. aureus DSM 20231 [1], first compound 0.25 µg/mL, partner 0.03 µg/mL	0.592
S. aureus DSM 20231 [1], first compound 0.5 µg/mL, partner 0.0075 µg/mL	0.766
S. aureus DSM 20231 [1], first compound 0.5 µg/mL, partner 0.015 µg/mL	0.641
S. aureus DSM 20231 [1], first compound 0.5 µg/mL, partner 0.03 µg/mL	0.565
S. aureus Newman [2], first compound 0.125 µg/mL, partner 0.0075 µg/mL	0.748
S. aureus Newman [2], first compound 0.125 µg/mL, partner 0.015 µg/mL	0.616
S. aureus Newman [2], first compound 0.25 µg/mL, partner 0.0075 µg/mL	0.738
S. aureus Newman [2], first compound 0.25 µg/mL, partner 0.015 µg/mL	0.615
S. aureus Newman [2], first compound 0.5 µg/mL, partner 0.0075 µg/mL	0.695
S. pneumoniae D39V [3], first compound 0.007 µg/mL, partner 0.0312 µg/mL	0.146
S. pneumoniae D39V [3], first compound 0.007 µg/mL, partner 0.0625 µg/mL	0.0456
S. pneumoniae D39V [3], first compound 0.007 µg/mL, partner 0.125 µg/mL	0.0274
S. pneumoniae D39V [3], first compound 0.0078 µg/mL, partner 0.005 µg/mL	≥ 1
S. pneumoniae D39V [3], first compound 0.0078 µg/mL, partner 0.01 µg/mL	0.981
S. pneumoniae D39V [3], first compound 0.0078 µg/mL, partner 0.02 µg/mL	≥ 1
S. pneumoniae D39V [3], first compound 0.014 µg/mL, partner 0.0312 µg/mL	0.137
S. pneumoniae D39V [3], first compound 0.014 µg/mL, partner 0.0625 µg/mL	0.0527
S. pneumoniae D39V [3], first compound 0.014 µg/mL, partner 0.125 µg/mL	0.0539
S. pneumoniae D39V [3], first compound 0.0155 µg/mL, partner 0.005 µg/mL	0.987
S. pneumoniae D39V [3], first compound 0.0155 µg/mL, partner 0.01 µg/mL	0.971
S. pneumoniae D39V [3], first compound 0.0155 µg/mL, partner 0.02 µg/mL	≥ 1
S. pneumoniae D39V [3], first compound 0.028 µg/mL, partner 0.0312 µg/mL	0.077
S. pneumoniae D39V [3], first compound 0.028 µg/mL, partner 0.0625 µg/mL	0.0286
S. pneumoniae D39V [3], first compound 0.028 µg/mL, partner 0.125 µg/mL	0.0219
S. pneumoniae D39V [3], first compound 0.031 µg/mL, partner 0.02 µg/mL	0.805

fitness, S. aureus DSM 20231 [1], one replicate
Details	first compound 0.125 µg/mL	first compound 0.25 µg/mL	first compound 0.5 µg/mL
partner 0.06 µg/mL	0.645	0.622	0.579
partner 0.12 µg/mL	0.469	0.521	0.482

Details	Bliss interaction score
B. subtilis 168	0.0325
S. aureus DSM 20231 [4]	-0.101
S. aureus Newman [5]	0.0732
S. pneumoniae D39V [6]	-0.0484

CC1(C)S[C@@H]2[C@H](NC(=O)[C@H](N)c3ccc(O)cc3)C(=O)N2[C@H]1C(=O)O [Amoxicillin] + C[n+]1ccc(-c2cc[n+](C)cc2)cc1 [Paraquat]
Details	fitness
S. aureus DSM 20231 [1], first compound 0.0625 µg/mL, partner 1.25 µg/mL	0.512
S. aureus DSM 20231 [1], first compound 0.0625 µg/mL, partner 2.5 µg/mL	0.517
S. aureus DSM 20231 [1], first compound 0.0625 µg/mL, partner 5 µg/mL	0.488
S. aureus DSM 20231 [1], first compound 0.125 µg/mL, partner 1.25 µg/mL	0.433
S. aureus DSM 20231 [1], first compound 0.125 µg/mL, partner 2.5 µg/mL	0.498
S. aureus DSM 20231 [1], first compound 0.125 µg/mL, partner 5 µg/mL	0.431
S. aureus DSM 20231 [1], first compound 0.25 µg/mL, partner 2.5 µg/mL	0.0563
S. aureus DSM 20231 [1], first compound 0.25 µg/mL, partner 5 µg/mL	0.0722
S. aureus Newman [2], first compound 0.0625 µg/mL, partner 1.25 µg/mL	0.89
S. aureus Newman [2], first compound 0.0625 µg/mL, partner 2.5 µg/mL	0.87
S. aureus Newman [2], first compound 0.0625 µg/mL, partner 5 µg/mL	0.86
S. aureus Newman [2], first compound 0.125 µg/mL, partner 1.25 µg/mL	0.861
S. aureus Newman [2], first compound 0.125 µg/mL, partner 2.5 µg/mL	0.885
S. aureus Newman [2], first compound 0.125 µg/mL, partner 5 µg/mL	0.838
S. aureus Newman [2], first compound 0.25 µg/mL, partner 5 µg/mL	0.829
S. pneumoniae D39V [3], first compound 0.0008 µg/mL, partner 1.5 µg/mL	≥ 1
S. pneumoniae D39V [3], first compound 0.0008 µg/mL, partner 3 µg/mL	0.961
S. pneumoniae D39V [3], first compound 0.0008 µg/mL, partner 6 µg/mL	0.921
S. pneumoniae D39V [3], first compound 0.0015 µg/mL, partner 1.5 µg/mL	0.988
S. pneumoniae D39V [3], first compound 0.0015 µg/mL, partner 3 µg/mL	0.939
S. pneumoniae D39V [3], first compound 0.0015 µg/mL, partner 6 µg/mL	0.913
S. pneumoniae D39V [3], first compound 0.003 µg/mL, partner 1.5 µg/mL	0.96
S. pneumoniae D39V [3], first compound 0.003 µg/mL, partner 3 µg/mL	0.847
S. pneumoniae D39V [3], first compound 0.003 µg/mL, partner 6 µg/mL	0.864

fitness, one replicate
Details	partner 1.25 µg/mL	partner 1.5 µg/mL	partner 2.5 µg/mL	partner 3 µg/mL	partner 5 µg/mL	partner 6 µg/mL
S. aureus DSM 20231 [1], first compound 0.5 µg/mL	0.0127	–	0.0289	–	0.0485	–
S. pneumoniae D39V [3], first compound 0.006 µg/mL	–	0.542	–	0.561	–	0.422

Details	Bliss interaction score
B. subtilis 168	-0.061
S. aureus DSM 20231 [4]	0.0506
S. aureus Newman [5]	0.0578
S. pneumoniae D39V [6]	-0.0705
